Measured values from US10828269B2, “Reducing muscle atrophy by administering astaxanthin” (FUJI CHEMICAL INDUSTRIES CO., LTD., priority 2004, dated 2020).

Experiments:
[1] = test system: catalase; experiment: GeneChip gene expression in renal glomerulus; format: in vivo, mouse; conditions: probe 1416430_at, 0.02% in diet, 12 weeks
Method: (§1) Type II diabetic female db/db mice and non-diabetic db/m were purchased from Clea Japan, Inc. Mice were bred under the conditions with a 12 hours light-dark cycle at a temperature of 21° C. to 25° C. For acclimation, mice were fed CE-2 (Clea Japan, Inc.) with free access to water for one week. The mice were divided into three groups each consisting of 8 mice (non-diabetic db/m, diabetic db/db, and astaxanthin-administered db/db) and each group was bred with feed ad libitum. Mice in astaxanthin-administered group were fed a diet in which 0.02% astaxanthin in terms of free astaxanthin was compounded with CE-2. Each group was bred for 12 weeks, and body weight, blood glucose levels, 8-OHdG levels in urine, albumin levels in urine, and kidney histopathology, were measured. Astaxanthin used here was AstaReal (registered trademark, Fuji Chemical Industry Co., Ltd.) 50F, which is oil composed of astaxanthin fatty acid ester and triglycerides and contains 5% astaxanthin in terms of free astaxanthin.
(§2) After the period of test breeding, kidney was removed and frozen at −80° C. Using an LM200 system (Olympus Corporation), the renal glomerulus was cut from kidney of mice while keeping low temperature. tRNA of renal glomerulus was extracted using tRNA extraction regent “Isogen” (produced by Nippon Gene Co., Ltd.), and then preparation of cRNA and hybridization were performed according to the Affymetrix GeneChip Eukaryotic Small Sample Target Labeling Assay Ver. II.
(§3) (1) Synthesis of first strand cDNA: 1 μL of total RNA solution and 1 of 5 μM T7-Oligo(dT) primer were mixed, heated at 70° C. for 6 minutes, and then cooled at 4° C. for 2 minutes. 3 μL of RT_Premix_1 (1.5 μL DEPC-treated water, 4 μL 5× First strand Buffer, 2 μL DTT (0.1 M), 1.5 μL dNTP Mix (10 mM), 1 μL RNase inhibitor (40 U/μL), and 2 μL Super-Script II (200 U/μL)) was added and reverse transcribed at 42° C. for 1 hour. The sample was heated at 70° C. for 10 minutes to inactivate Super Script II, and then cooled to 4° C. (2) Synthesis of second strand cDNA: 32.5 μl of SS_Premix_1 (91 μL DEPC-treated water, 30 μL 5× Second Strand Buffer, 3 μL dNTP (10 mM), 1 μL E. coli DNA ligase (10 U/μL); 4 μL E. coli DNA polymerase (10 U/μL), and 1 μL RNase H (2 U/μL)) was added to the first strand cDNA solution and allowed to react for 2 hours at 16° C. (3) To the resulting cDNA, was added 1 μL T4 DNA polymerase (5 U/μl) and allowed to react for 10 minutes at 16° C., and purified by ethanol precipitation. (4) In vitro transcription: To the dried double-stranded cDNA pellet, was added 10 μL of reagents (4 μL DEPC-treated water, 4 μL premixed NTPs, 1 μL 10× reaction buffer, and 1 μL 10× enzyme mix), and allowed to react at 37° C. in a water bath for 6 hours. (5) First cycle cRNA was purified using the RNeasy Mini Kit in accordance with the protocol in the handbook (QIAGEN). (6) Subsequently, for the amplification and labeling, the cRNA sample was mixed with random primers (0.2 μg/μL), treated at 70° C. for 10 minutes, cooled on ice for 2 minutes, 5 μL of RT_Premix_2 (5× First Strand Buffer, DTT (0.1 M), dNTP mix (10 mM), RNase inhibitor (40 U/μL), and SuperScript II (200 U/μL) was added, and allowed to react at 42° C. for 1 hour. (7) Next, Second Sstrand cDNA synthesis was carried out by adding 5 μM T7-Oligo(dT) promoter treating at 70° C. for 6 minutes, cooling at 4° C., and adding 62 μL of SS_Premix_2 (43 μL it DEPC-treated water, 15 μL 5× Second Strand Buffer, 1.5 μL dNTP mix (10 mM), and 2 μL E. coli DNA polymerase (10 U/μL)). (8) To the resulting cDNA, was treated added 1 μL of T4 DNA polymerase (5 U/μL), allowed to react at 16° C. for 10 minutes, and purified by ethanol precipitation. […]

[2] = test system: C1q and tumor necrosis factor related protein 5; experiment: GeneChip gene expression in renal glomerulus; format: in vivo, mouse; conditions: probe 1424762_at, 0.02% in diet, 12 weeks
Method: as §1, §2, §3

[3] = test system: FK506 binding protein 1a; experiment: GeneChip gene expression in renal glomerulus; format: in vivo, mouse; conditions: probe 1448184_at (Table 4), 0.02% in diet, 12 weeks
Method: as §1, §2, §3

[4] = test system: transforming growth factor beta 1 induced transcript 4; experiment: GeneChip gene expression in renal glomerulus; format: in vivo, mouse; conditions: 0.02% in diet, 12 weeks
Method: as §1, §2, §3

[5] = test system: catenin beta; experiment: GeneChip gene expression in renal glomerulus; format: in vivo, mouse; conditions: probe 1420811_a_at, 0.02% in diet, 12 weeks
Method: as §1, §2, §3

[6] = test system: granulin; experiment: GeneChip gene expression in renal glomerulus; format: in vivo, mouse; conditions: probe 1438629_x_at, 0.02% in diet, 12 weeks
Method: as §1, §2, §3

[7] = test system: procollagen, type IV, alpha 5; experiment: GeneChip gene expression in renal glomerulus; format: in vivo, mouse; conditions: probe 1425476_at, 0.02% in diet, 12 weeks
Method: as §1, §2, §3

[8] = test system: caspase 7; experiment: GeneChip gene expression in renal glomerulus; format: in vivo, mouse; conditions: probe 1434099_at, 0.02% in diet, 12 weeks
Method: as §1, §2, §3

[9] = test system: isocitrate dehydrogenase 1 (NADP+), soluble; experiment: GeneChip gene expression in renal glomerulus; format: in vivo, mouse; conditions: probe 1419821_s_at, 0.02% in diet, 12 weeks
Method: as §1, §2, §3

[10] = test system: macrophage scavenger receptor 1; experiment: GeneChip gene expression in renal glomerulus; format: in vivo, mouse; conditions: probe 1448061_at, 0.02% in diet, 12 weeks
Method: as §1, §2, §3

[11] = test system: insulin like growth factor 2 receptor; experiment: GeneChip gene expression in renal glomerulus; format: in vivo, mouse; conditions: probe 1424111_at, 0.02% in diet, 12 weeks
Method: as §1, §2, §3

[12] = test system: RT1 class II, locus Ba; experiment: GENEchip mRNA expression in gastrocnemius; format: in vivo, rat; conditions: probe 1377334_at

Compound: CC1=C(/C=C/C(C)=C/C=C/C(C)=C/C=C/C=C(C)/C=C/C=C(C)/C=C/C2=C(C)C(=O)C(O)CC2(C)C)C(C)(C)CC(O)C1=O (stereo not drawn) [astaxanthin, 3,3′-dihydroxy-β,β-carotene-4,4′-dione]
- gene expression relative ratio db/db(Ax):db/db [1]: 0.33
- gene expression relative ratio db/db(Ax):db/m [1]: 8.57
- gene expression intensity ratio db/db(Ax):db/db [2]: 2.00
- gene expression intensity ratio db/db(Ax):db/m [2]: 1.23
- gene expression relative ratio db/db(Ax):db/db [3]: 0.66
- gene expression relative ratio db/db(Ax):db/m [3]: 6.50
- gene expression relative ratio db/db(Ax):db/db ([4]; probe 1425742_a_at): 0.33
- gene expression relative ratio db/db(Ax):db/m ([4]; probe 1425742_a_at): 1.41
- gene expression relative ratio db/db(Ax):db/db ([4]; probe 1454971_x_at): 0.57
- gene expression relative ratio db/db(Ax):db/m ([4]; probe 1454971_x_at): 3.25
- gene expression relative ratio db/db(Ax):db/db [5]: 0.38
- gene expression relative ratio db/db(Ax):db/m [5]: 12.13
- gene expression relative ratio db/db(Ax):db/db [6]: 0.19
- gene expression relative ratio db/db(Ax):db/m [6]: 3.03
- gene expression intensity ratio db/db(Ax):db/db [7]: 0.50
- gene expression intensity ratio db/db(Ax):db/m [7]: 2.00
- gene expression relative ratio db/db(Ax):db/db [8]: 0.87
- gene expression relative ratio db/db(Ax):db/m [8]: 68.59
- gene expression relative ratio db/db(Ax):db/db [9]: 0.33
- gene expression relative ratio db/db(Ax):db/m [9]: 6.96
- gene expression intensity ratio db/db(Ax):db/db [10]: 0.25
- gene expression intensity ratio db/db(Ax):db/m [10]: 1.32
- gene expression intensity ratio db/db(Ax):db/db [11]: 0.87
- gene expression intensity ratio db/db(Ax):db/m [11]: 11.31
- gene expression intensity ratio ad/nd ([12]; denervated left leg gastrocnemius, astaxanthin group vs control group): 0.51
- luminescence intensity ad ([12]; denervated left leg gastrocnemius, astaxanthin-administered group): 312
- gene expression intensity ratio ac/nc ([12]; right leg (control) gastrocnemius, astaxanthin group vs control group): 1.60
- luminescence intensity ac ([12]; right leg (control) gastrocnemius, astaxanthin-administered group): 220.5
